Test results published in patent US20230167118A1, “DEGRADATION OF BRUTON'S TYROSINE KINASE (BTK) BY CONJUGATION OF BTK INIDBITORS WITH E3 LIGASE LIGAND AND METHODS OF USE” (BEIGENE, LTD., priority 2020, published 2023).

How the values were obtained:
HEK-293 cells = assay: HEK-293 Cytotoxicity Assay (CellTiter-Glo); format: cell-based; conditions: Homo sapiens, HEK293, 72 h incubation, CellTiter-Glo luminescence
Experimental: HEK-293 Cytotoxicity Assay
HEK-293 cells are treated with compounds diluted in 0.2% DMSO, dilution is done according to the following protocol: (1) make 500× stock solution in DMSO from 5 mM by 4-fold dilution, total 8 doses were included; (2) make 2× solution in cell culture medium by transferring 0.5 ul 500× stock solution into 125 ul medium; (3) 50 ul of 2× solution is added to cells and incubate for 72 h.
Add 25 μl of the CellTiter-Glo®Reagent [I (Promega)—Cat No. G7572] to each well in the 96-well plate. Mix contents for 2 minutes on an orbital shaker to induce cell lysis. Allow the plate to incubate at room temperature for 10 minutes to stabilize luminescent signal. Record luminescence on BMG PheraStar with luminescence protocol.
(§1) The IC50 value of a compound can be obtained by fitting the following equation. Y=Bottom+(TOP−Bottom)/(1+((IC50/X)^hillslope)) Wherein, X and Y are known values, and IC50, Hillslope, Top and Bottom are the parameters obtained by fitting with software. Y is the inhibition percentage (calculated from the equation), X is the concentration of the compound; IC50 is the concentration of the compound when the 50% inhibition is reached. The smaller the IC50 value is, the stronger the inhibitory ability of the compound is. Vice versa, the higher the IC50 value is, the weaker the ability the inhibitory ability of the compound is; Hillslope represents the slope of the fitted curve, generally around 1*; Bottom represents the minimum value of the curve obtained by data fitting, which is generally 0%±20%; Top represents the maximum value of the curve obtained by data fitting, which is generally 100%±20%. The experimental data were fitted by calculating and analyzing with Dotmatics data analysis software.

BTK = target: T1, BTK (Homo sapiens, UniProt Q06187); assay: Cell Degradation: BTK degradation in TMD-8 cells, HTRF assay; format: cell-based; conditions: 6 h treatment, IC50 (DC50) of BTK degradation
T1 construct: High control=Cell group with added DMSO and without compound, indicating microplate readings without BTK degradation; endogenous in cells; host or cells: TMD-8 cells
T1 sequence (Q06187 whole entry): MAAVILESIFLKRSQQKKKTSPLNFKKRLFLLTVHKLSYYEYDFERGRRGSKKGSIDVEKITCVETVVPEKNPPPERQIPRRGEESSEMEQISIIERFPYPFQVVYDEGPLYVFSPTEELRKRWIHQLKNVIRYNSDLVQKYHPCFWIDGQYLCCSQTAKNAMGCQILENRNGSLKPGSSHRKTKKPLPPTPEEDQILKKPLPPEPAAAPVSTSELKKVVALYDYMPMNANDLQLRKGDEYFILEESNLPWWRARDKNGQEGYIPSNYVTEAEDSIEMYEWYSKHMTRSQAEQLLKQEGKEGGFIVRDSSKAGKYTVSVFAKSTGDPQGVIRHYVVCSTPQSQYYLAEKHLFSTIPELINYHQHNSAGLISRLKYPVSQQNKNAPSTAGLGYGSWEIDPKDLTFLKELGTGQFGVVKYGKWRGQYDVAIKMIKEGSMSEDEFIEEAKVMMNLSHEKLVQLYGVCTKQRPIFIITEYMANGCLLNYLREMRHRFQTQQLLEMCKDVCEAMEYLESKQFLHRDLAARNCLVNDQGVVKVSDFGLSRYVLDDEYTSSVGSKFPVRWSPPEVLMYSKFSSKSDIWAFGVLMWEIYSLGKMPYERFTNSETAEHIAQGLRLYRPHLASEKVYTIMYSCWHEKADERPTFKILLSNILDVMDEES
Experimental: TMD-8 cells are treated with compounds in 0.2% DMSO, dilution is done according to the following protocol: (1) make 500× stock solution in DMSO from 1 mM by 6-fold dilution, total 8 doses were included; (2) make 2× solution in cell culture medium by transferring 0.5 μl 500× stock solution into 125 μl medium; (3) 15 μl of 2× solution is added to cells and incubate for 6 h.
After 6 h treatment, add […] 4×lysis buffer to each well; seal the plate and incubate 30 min at room temperature on a plate shaker; Once the cells are lysed, 16 μL of cell lysate are transferred to a PE 384-well HTRF detection plate; 4 μL of pre-mixed HTRF antibodies are added to each well; Cover the plate with a plate sealer, spin 1000 rpm for 1 min, Incubate overnight at room temperature; Read on BMG PheraStar with HTRF protocol (337 nm-665 nm-620 nm).
The inhibition (degradation) percentage of the compound was calculated by the following equation: Inhibition percentage of Compound=100-100× (Signal-low control)/(High control-low control), wherein signal=each test compound group
Dmax is the maximum percentage of inhibition (degradation).
The IC50 (DC50) value of a compound can be obtained by fitting the following equation
Y=Bottom+(TOP-Bottom)/(1+((IC50/X)^hillslope))
as §1, with “Wherein,” for “The IC50 value of a compound can be obtained by fitting the following equation. Y=Bottom+(TOP−Bottom)/(1+((IC50/X)^hillslope)) Wherein,”, “1 *;” for “1*;”

Structure (SMILES)	IC50 (HEK-293 cells)	DC50 (BTK)
Cc1cc(-c2ncnc3[nH]c(-c4ccc(N5CCN(CC6CCN(c7ccc(N8CCC(=O)N(C)C8=O)cc7)CC6)CC5)nc4)cc23)ccc1[C@@H](C)NC(=O)c1nc(C(C)(C)C)no1 [Example 146, (R)-3-(tert-butyl)-N-(1-(2-methyl-4-(6-(6-(4-((1-(4-(3-methyl-2,4-dioxotetrahydropyrimidin-1(2H)-yl)phenyl)piperidin-4-yl)methyl)piperazin-1-yl)pyridin-3-yl)-7H-pyrrolo[2,3-d]pyrimidin-4-yl)phenyl)ethyl)-1,2,4-oxadiazole-5-carboxamide]	> 10000 nM	> 2000 nM
C[C@@H](NC(=O)c1nc(C(C)(C)C)no1)c1ccc(-c2ncnc3[nH]c(-c4ccc(N5CCN(CC6CCN(c7ccc(N8CCC(=O)NC8=O)cc7)CC6)CC5)cc4)cc23)cc1F [Example 21, (R)-3-(tert-butyl)-N-(1-(4-(6-(4-(4-((1-(4-(2,4-dioxotetrahydropyrimidin-1(2H)-yl)phenyl)piperidin-4-yl)methyl)piperazin-1-yl)phenyl)-7H-pyrrolo[2,3-d]pyrimidin-4-yl)-2-fluorophenyl)ethyl)-1,2,4-oxadiazole-5-carboxamide]	> 10000 nM	1.7 nM
C[C@@H](NC(=O)c1noc(C(C)(C)C)n1)c1ccc(-c2ncnc3[nH]c(-c4ccc(N5CCN(CC6CCN(c7ccc(N8CCC(=O)NC8=O)cc7)CC6)CC5)cn4)cc23)cc1CO [Example 136, (R)-5-(tert-butyl)-N-(1-(4-(6-(5-(4-((1-(4-(2,4-dioxotetrahydropyrimidin-1(2H)-yl)phenyl)piperidin-4-yl)methyl)piperazin-1-yl)pyridin-2-yl)-7H-pyrrolo[2,3-d]pyrimidin-4-yl)-2-(hydroxymethyl)phenyl)ethyl)-1,2,4-oxadiazole-3-carboxamide]	> 10000 nM	0.17 nM
COc1ccc(C(=O)N2CCC(CN3CCC(Oc4ccc(-c5cc6c(-c7ccc(CNC(=O)c8nc(C(C)(C)C)no8)c(C)c7)ncnc6[nH]5)cc4)CC3)CC2)cc1N1CCC(=O)NC1=O [Example 27, 3-(tert-butyl)-N-(4-(6-(4-((1-((1-(3-(2,4-dioxotetrahydropyrimidin-1(2H)-yl)-4-methoxybenzoyl)piperidin-4-yl)methyl)piperidin-4-yl)oxy)phenyl)-7H-pyrrolo[2,3-d]pyrimidin-4-yl)-2-methylbenzyl)-1,2,4-oxadiazole-5-carboxamide]	> 10000 nM	1.9 nM
Cc1cc(-c2ncnc3[nH]c(-c4ccc(N5CCN(CC6CCN(c7ccc(N8CCC(=O)NC8=O)cc7)CC6)CC5)cc4)cc23)ccc1[C@@H](C)NC(=O)c1noc(C(C)(C)C)n1 [Example 41, (R)-5-(tert-butyl)-N-(1-(4-(6-(4-(4-((1-(4-(2,4-dioxotetrahydropyrimidin-1(2H)-yl)phenyl)piperidin-4-yl)methyl)piperazin-1-yl)phenyl)-7H-pyrrolo[2,3-d]pyrimidin-4-yl)-2-methylphenyl)ethyl)-1,2,4-oxadiazole-3-carboxamide]	> 10000 nM	1.3 nM
Cc1cc(-c2ncnc3[nH]c(-c4ccc(N5CCN(CC6CCN(c7ccc(N8CCC(=O)NC8=O)cc7)CC6)CC5)cc4)cc23)ccc1[C@@H](C)NC(=O)c1noc(C2(C)CC2)n1 [Example 90, (R)-N-(1-(4-(6-(4-(4-((1-(4-(2,4-dioxotetrahydropyrimidin-1(2H)-yl)phenyl)piperidin-4-yl)methyl)piperazin-1-yl)phenyl)-7H-pyrrolo[2,3-d]pyrimidin-4-yl)-2-methylphenyl)ethyl)-5-(1-methylcyclopropyl)-1,2,4-oxadiazole-3-carboxamide]	> 10000 nM	1.5 nM
Cc1cc(-c2ncnc3[nH]c(-c4ccc(N5CCN(CC6CCN(c7ccc(N8CCC(=O)NC8=O)c(C)c7)CC6)CC5)nc4)nc23)ccc1[C@@H](C)NC(=O)c1noc(C(C)(C)C)n1 [Example 71, (R)-5-(tert-butyl)-N-(1-(4-(8-(6-(4-((1-(4-(2,4-dioxotetrahydropyrimidin-1(2H)-yl)-3-methylphenyl)piperidin-4-yl)methyl)piperazin-1-yl)pyridin-3-yl)-9H-purin-6-yl)-2-methylphenyl)ethyl)-1,2,4-oxadiazole-3-carboxamide]	> 10000 nM	0.21 nM
Cc1c(-c2ncnc3[nH]c(-c4ccc(N5CCN(CC6CCN(c7ccc(N8CCC(=O)NC8=O)cc7)CC6)CC5)cc4)cc23)cccc1N1CCn2c(cc3c2CC(C)(C)C3)C1=O [Example 11, 1-(4-(4-((4-(4-(4-(3-(7,7-dimethyl-1-oxo-1,3,4,6,7,8-hexahydro-2H-cyclopenta[4,5]pyrrolo[1,2-a]pyrazin-2-yl)-2-methylphenyl)-7H-pyrrolo[2,3-d]pyrimidin-6-yl)phenyl)piperazin-1-yl)methyl)piperidin-1-yl)phenyl)dihydropyrimidine-2,4(1H,3H)-dione]	> 10000 nM	4.7 nM
Cc1cc(-c2ncnc3[nH]c(-c4cccc(N5CCN(CC6CCN(c7ccc(N8CCC(=O)NC8=O)cc7)CC6)CC5)c4)cc23)ccc1[C@@H](C)NC(=O)c1nc(C(C)(C)C)no1 [Example 116, (R)-3-(tert-butyl)-N-(1-(4-(6-(3-(4-((1-(4-(2,4-dioxotetrahydropyrimidin-1(2H)-yl)phenyl)piperidin-4-yl)methyl)piperazin-1-yl)phenyl)-7H-pyrrolo[2,3-d]pyrimidin-4-yl)-2-methylphenyl)ethyl)-1,2,4-oxadiazole-5-carboxamide]	> 10000 nM	2.28 nM
CC(C)(C)c1noc(C(=O)NCc2ccc(-c3ncnc4[nH]c(-c5cnn(C6CCN(CC7CCN(c8ccc(N9CCC(=O)NC9=O)cc8)CC7)CC6)c5)cc34)cc2F)n1 [Example 16, 3-(tert-butyl)-N-(4-(6-(1-(1-((1-(4-(2,4-dioxotetrahydropyrimidin-1(2H)-yl)phenyl)piperidin-4-yl)methyl)piperidin-4-yl)-1H-pyrazol-4-yl)-7H-pyrrolo[2,3-d]pyrimidin-4-yl)-2-fluorobenzyl)-1,2,4-oxadiazole-5-carboxamide]	> 10000 nM	0.55 nM
Cc1cc(-c2ncnc3[nH]c(-c4ccc(N5CCN(CC6CCN(c7ccc(N8CCC(=O)NC8=O)cc7)CC6)CC5)cc4)cc23)ccc1CNC(=O)c1csc(C(C)(C)C)n1 [Example 46, 2-(tert-butyl)-N-(4-(6-(4-(4-((1-(4-(2,4-dioxotetrahydropyrimidin-1(2H)-yl)phenyl)piperidin-4-yl)methyl)piperazin-1-yl)phenyl)-7H-pyrrolo[2,3-d]pyrimidin-4-yl)-2-methylbenzyl)thiazole-4-carboxamide]	> 10000 nM	5.3 nM
Cc1cc(-c2ncnc3[nH]c(-c4ccc(C5CCN(CCC6CCN(c7ccc(N8CCC(=O)NC8=O)cc7)CC6)CC5)cc4)cc23)ccc1CNC(=O)c1nc(C(C)(C)C)no1 [Example 3, 3-(tert-butyl)-N-(4-(6-(4-(1-(2-(1-(4-(2,4-dioxotetrahydropyrimidin-1(2H)-yl)phenyl)piperidin-4-yl)ethyl)piperidin-4-yl)phenyl)-7H-pyrrolo[2,3-d]pyrimidin-4-yl)-2-methylbenzyl)-1,2,4-oxadiazole-5-carboxamide]	1700 nM	3.8 nM
